What was measured:
Type in all cases: in vivo
Settings in all cases: 250 g/ha unless otherwise stated, evaluated after 13 days, five-point scale
[1] = system: Ipomoea hederacea (IPOHE); assay: Test 1 glasshouse herbicide test, pre-emergence application (Table B2)
In short: (§1)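 Pots sown in standard soil; sprayed 1 day (pre-emergence) or 8 days (post-emergence) after sowing at 250 g/ha unless stated, in acetone/water (50:50) with 0.5% Tween 20. Glasshouse 24/16 °C, 14 h light, 65% humidity; damage scored at 13 days on a 1–5 scale (5=81–100%, 1=0–20%).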

[2] = system: Echinochloa crus-galli (ECHCG); assay: as above
In short: as §1

Lolium perenne (LOLPE) [3] = assay: as above
In short: as §1

Setaria faberi (SETFA) [4] = assay: as above
In short: as §1

Solanum nigrum (SOLNI) [5] = assay: as above
In short: as §1

[6] = system: Amaranthus retoflexus (AMARE); assay: as above
In short: as §1

[7] = system: Ipomoea hederacea (IPOHE); assay: Test 1 glasshouse herbicide test, post-emergence application (Table B1)
In short: as §1

[8] = system: Echinochloa crus-galli (ECHCG); assay: as above
In short: as §1

Lolium perenne (LOLPE) [9] = assay: as above
In short: as §1

Setaria faberi (SETFA) [10] = assay: as above
In short: as §1

Solanum nigrum (SOLNI) [11] = assay: as above
In short: as §1

[12] = system: Amaranthus retoflexus (AMARE); assay: as above
In short: as §1

Row | Structure (SMILES) | % phytotoxicity IPOHE, pre-emergence application [1] | % phytotoxicity ECHCG, pre-emergence application [2] | % phytotoxicity LOLPE, pre-emergence application (Lolium perenne (LOLPE) [3]) | % phytotoxicity SETFA, pre-emergence application (Setaria faberi (SETFA) [4]) | % phytotoxicity SOLNI, pre-emergence application (Solanum nigrum (SOLNI) [5]) | % phytotoxicity AMARE, pre-emergence application [6] | % phytotoxicity IPOHE, post-emergence application [7] | % phytotoxicity ECHCG, post-emergence application [8] | % phytotoxicity LOLPE, post-emergence application (Lolium perenne (LOLPE) [9]) | % phytotoxicity SETFA, post-emergence application (Setaria faberi (SETFA) [10]) | % phytotoxicity SOLNI, post-emergence application (Solanum nigrum (SOLNI) [11]) | % phytotoxicity AMARE, post-emergence application [12]
1 | N#Cc1cccc(Oc2ncc(Cl)cn2)c1SCCCC(F)(F)F [Compound A28, 3-(5-chloropyrimidin-2-yl)oxy-2-(4,4,4-trifluorobutylsulfanyl)benzonitrile] | 5 (5=81 to 100%) | 5 (5=81 to 100%) | 5 (5=81 to 100%) | 5 (5=81 to 100%) | 5 (5=81 to 100%) | 5 (5=81 to 100%) | 5 (5=81 to 100%) | 5 (5=81 to 100%) | 5 (5=81 to 100%) | 5 (5=81 to 100%) | 5 (5=81 to 100%) | 5 (5=81 to 100%)
2 | N#Cc1cccc(Oc2ncc(Cl)cn2)c1[S+]([O-])CCCC(F)(F)F (stereo not drawn) [Compound A29, 3-(5-chloropyrimidin-2-yl)oxy-2-(4,4,4-trifluorobutylsulfinyl)benzonitrile] | 5 (5=81 to 100%) | 5 (5=81 to 100%) | 5 (5=81 to 100%) | 5 (5=81 to 100%) | 5 (5=81 to 100%) | 5 (5=81 to 100%) | 5 (5=81 to 100%) | 5 (5=81 to 100%) | 5 (5=81 to 100%) | 5 (5=81 to 100%) | 5 (5=81 to 100%) | 5 (5=81 to 100%)
3 | N#Cc1cccc(Oc2ncc(Cl)cn2)c1S(=O)(=O)CCCC(F)(F)F [Compound A30, 3-(5-chloropyrimidin-2-yl)oxy-2-(4,4,4-trifluorobutylsulfonyl)benzonitrile] | 5 (5=81 to 100%) | 5 (5=81 to 100%) | 5 (5=81 to 100%) | 5 (5=81 to 100%) | 5 (5=81 to 100%) | 5 (5=81 to 100%) | 4 (4=61 to 80%) | 5 (5=81 to 100%) | 5 (5=81 to 100%) | 5 (5=81 to 100%) | 5 (5=81 to 100%) | 5 (5=81 to 100%)
